Experimental data reported in article PMC2832019, “In Vitro Metabolic and Mitogenic Signaling of Insulin Glargine and Its Metabolites” (PLoS ONE, 2010).
Like-named read-outs stand apart in the source and are kept apart here.

Experiments:
[1] = no reference given, cited from earlier work
Source text: These alterations cause a shift in the isoelectric point from pH 5.4 to 6.7. Following subcutaneous administration as a clear solution of pH 4, insulin gla ...

human IGF1R [2] = experiment: IGF1R autophosphorylation (In-Cell Western); assay type: cell-based; details: for EC50: MEF cells overexpressing IGF1R, 15 min at 37°C, In-Cell Western, means ± SEM, at least three times, read-out: IGF1R auto-phosphorylation EC50; for more potent in stimulation of IGF1R autophosphorylation: relative to human insulin
Source text: CHO cells expressing either the IR-A or the IR-B isoform were used for IR autophosphorylation assays using In-Cell Western. For the analysis of IGF1R autophosphorylation the receptor was overexpressed in a mouse embryo fibroblast 3T3 Tet off cell line (BD Bioscience, Heidelberg, Germany) that was stably transfected with IGF1R tetracycline-regulatable expression plasmid resulting in the expression of ∼2.6×10^5 IGF1R per cell (as determined by FACS analysis, unpublished data). In order to determine the receptor tyrosine phosphorylation level, cells were seeded into 96-well plates and grown for 48 h. Cells were serum starved with serum-free medium αMEM (PAN Biotech GmbH, Aidenbach, Germany) for 3–4 h. […] After incubation the medium was discarded and the cells were fixed in 3.75% freshly prepared para-formaldehyde for 20 min. Cells were permeabilized with 0.1% Triton-X-100 in PBS for 20 min. Blocking was performed with Odyssey blocking buffer (LI-COR, Bad Homburg, Germany) overnight at 4°C. Anti-pTyr 4G10 (Millipore, Schwalbach, Germany) was incubated for 2 h at room temperature. After incubation of the primary antibody, cells were washed with PBS+0.1% Tween20. The secondary anti-mouse-IgG-800-CW antibody (Rockland, Gilbertsville, PA, USA) was incubated for 1 h. Results were normalized by the quantification of DNA with TO-PRO3 dye (Invitrogen, Karlsruhe, Germany). Data were obtained as relative units (RU) and are presented as fold over basal.
(§1) For each experiment, IC50 or EC50 values were obtained using the 4-parameter logistic model according to Ratkowsky and Reedy (1986). The adjustment was obtained by non-linear regression using the Levenberg-Marquardt algorithm in SAS v9.1.3 software via Biost@t-Speed V2.0-LTS internal application. If necessary, lower and upper asymptotes were set to 0 and 100, respectively.
(§2) Figure 4 Activity of insulin analogs on the human IGF1R and mitogenic potential in Saos-2 cells. Analysis of binding to the human IGF1R using [^125I]IGF-1 as radioactive ligand (A) and analysis of the insulin-stimulated autophosphorylation of the human IGF1R overexpressed in MEF cells (B) were done as described in figure 2 and Materials and Methods. Data are given as means ± SEM. […] Confluent cells were starved for 4 h and then incubated for 19 h with increasing concentrations of IGF-1, insulin or analog in serum free medium. [^14C]thymidine was added for further 6 h and the radioactivity measured in a Wallac Micro Scintillation counter. Data are given as means ± SEM from octuplicate sample.

MCF10 = details: benign cell line; ref [15]; cited from earlier work
Source text: A correlation between IGF1R autophosphorylation and cell proliferation has been recently assumed by Shukla et al., who observed an enhanced growth of the malignant cell line MCF7 after insulin glargine stimulation. The authors have observed 10% and 50% increases of cellular proliferation at 0.31 and about 15 nmol/L. This effect seemed to be linked to activation of the IGF1R and the MAPK pathway, since siRNA knockdown of IGF1R decreased the response. Unfortunately, no dose-response curve of IGF1R autophosphorylation as well as no proliferation data from siRNA knockdown of IR have ...

human IR-A = experiment: Competitive receptor binding (SPA), IR-A; details: for higher affinity for IR-A than IR-B: IR-A relative to IR-B; for IC50: SPA, WGA PVT PEI beads, 2 µg membranes from CHO cells overexpressing IR-A, 100 pmol/L A14[^125I]-insulin, pH 7.8, 12 h, 23°C, means ± SEM, at least three times, read-out: IR-A affinity IC50; for difference in affinity between IR-A and IR-B: IR-A vs IR-B, in words; for IR-A binding, less active than human insulin: decrease relative to human insulin
Description: The binding of the different insulins to the human IR-A and IR-B was analyzed in a competitive binding assay using the scintillation proximity assay as previously described, [30]. […] Briefly, cells were grown to confluence and gently detached, transferred to a centrifugation tube followed by centrifugation for 10 minutes at 600×g at 4°C. The pellet was resuspended in ice-cold 2.25 STM buffer (2.25 mol/L sucrose, 5 mmol/L Tris-HCl pH 7.4, 5 mmol/L MgCl2, 1x Complete Protease Inhibitor) and disrupted using a hand-held Dounce homogenizer followed by sonication. This homogenate was transferred to a centrifugation tube, overlaid with 0.8 STM buffer (0.8 mol/L sucrose, 5 mmol/L Tris-HCl pH 7.4, 5 mmol/L MgCl2, 1x Complete Protease Inhibitor) and centrifuged for 90 minutes at 100 000×g at 4°C. The emerging pellicle at the interface was collected, transferred to a new tube and washed two times with PBS by centrifugation for 10 minutes at 1500×g. The final pellet was resuspended in a small volume of dilution buffer (50 mmol/L Tris-HCl pH 7.4, 5 mmol/L MgCl2, 1x Complete Protease Inhibitor) and homogenized with a Dounce homogenizer. These plasma membrane preparations were stored until usage at –80°C.
(§3) Binding experiments were conducted in 96-well microplates. Per well 2 µg of membranes were incubated with 0.25 mg wheat germ agglutinin polyvinyltoluene polyethylenimine SPA beads, 100 pmol/L A14[^125I]-insulin and various concentrations of unlabeled insulins in a binding buffer containing 0.05 mol/L Tris-HCl pH 7.8, 0.15 mol/L NaCl, 0.1% BSA, Complete Protease Inhibitor for 12 hours at room temperature (23°C). The radioactivity was measured at equilibrium in a microplate scintillation counter (Wallac Microbeta, Freiburg, Germany).
as §1
The binding of a constant concentration of [^125I]insulin to plasma membranes from CHO cells overexpressing either IR-A or IR-B was measured in presence of increasing concentrations of unlabeled competing ligand after incubation at room temperature for 12 h. All data has been corrected for non-specific binding and are expressed as percentage of [^125I]insulin in absence of competing ligand. To analyze the insulin-stimulated activation and subsequent autophosphorylation of the insulin receptor CHO cells overexpressing the human IR-A (C) or IR-B (D) were stimulated for 15 min at 37°C with increasing concentrations of peptides, then the cells were fixed with 3.7% PFA and the amount of phosphotyrosines was analyzed via In-Cell Western. The data represent mean values ± SEM of at least 3 individual experiments measured in quadruplicate.

human IGF1R [3] = experiment: Competitive binding, IGF1R; details: for IC50: [^125I]IGF-1 as radioactive ligand, means ± SEM, at least three times, read-out: IGF1R affinity IC50
Description: as §3, §1, §2

Saos-2 = test system: Saos-2; design: method as in PMID 10866053; details: ref [12]; cited from earlier work
insulin receptor = details: cited from earlier work
Source text: Accordingly, a good correlation between the potency in insulin receptor binding, induction of autophosphorylation and stimulation of lipid synthesis has been observed for insulin analogs. […] Taken together ...

[4] = in vivo; cited from earlier work
[5] = relative to human insulin, ref [12]

Substance | EC50 (human IGF1R [2]) | IC50 (human IR-A) | IC50 (human IGF1R [3]) | more potent in stimulation of IGF1R autophosphorylation (human IGF1R [2]) | difference in affinity between IR-A and IR-B (human IR-A) | IR-A binding, less active than human insulin (human IR-A) | plasma levels of metabolites [4] | other results
Human insulin: human insulin produced by recombinant DNA techniques or enzymatic semisynthesis | 447 ± 38.7 nM |  |  |  |  |  |  | isoelectric point [1]: 5.4 pH; difference between human insulin and insulin glargine (MCF10): did not show any difference
IGF-1: IGF-1 obtained from R&D Systems and Cell Sciences | 2.9 ± 0.4 nM | 64.5 ± 5.1 nM | 0.89 ± 0.19 nM |  |  |  |  | higher affinity for IR-A than IR-B (human IR-A): 2.7 fold; IR-A affinity less potent than human insulin (human IR-A; IR-A, relative to human insulin): approximately 130 fold
[Asp^B10]insulin | 72.7 ± 7.6 nM | 0.06 ± 0.01 nM | 104 ± 12.8 nM | about 5 fold |  |  |  | proliferation rate of Saos-2 (Saos-2): higher proliferation rate; higher affinity for IR-A than IR-B (human IR-A): 3.5 fold; IR-A binding, more potent relative to human insulin (human IR-A; relative to human insulin): 8.2 fold; less potent relative to IGF-1 (IGF1R autophosphorylation) (human IGF1R [2]): ~25 times; affinity towards IR and IGF1R (insulin receptor; IR and IGF1R, relative to human insulin, ref [12]): higher affinity towards both IR and IGF1R; occupancy time for the IR (insulin receptor; ref [12]): prolonged occupancy time; occupancy of receptor (insulin receptor; ref [50]): prolonged occupancy
[Gly^A21,Arg^B31,Arg^B32]insulin [Glargine] | 87.5 ± 10 nM | 0.83 ± 0.08 nM | 63.2 ± 19.9 nM | about 5 fold | no difference | 40–50% |  | isoelectric point [1]: 6.7 pH; solubility ([1]; physiological pH): low solubility at physiological pH; less potent relative to IGF-1 (IGF1R autophosphorylation) (human IGF1R [2]): ~30 times; difference between human insulin and insulin glargine (MCF10): did not show any difference; dissociation rate (insulin receptor; relative to human insulin, ref [12], [51]): dissociation rate similar to that of human insulin; insulin receptor binding relative to human insulin (insulin receptor; [5]): 86%
[Gly^A21,Arg^B31]insulin [Glargine IM] | 179 ± 19.6 nM | 0.78 ± 0.03 nM | 80 ± 10.2 nM | 2 fold | no difference | 40–50% | minor species only | 
[Gly^A21,des-Thr^B30]insulin [Glargine M2] | 485 ± 43.6 nM | 0.93 ± 0.16 nM | 427 ± 20.6 nM |  | no difference | 40–50% | significant plasma levels | EC50 (human IGF1R [2]; listed as M2): > 400 nM; IGF1R affinity in words (human IGF1R [3]): significantly reduced
[Gly^A21]insulin [Glargine M1] | 644 ± 56.9 nM | 1.02 ± 0.03 nM | 649 ± 31.9 nM |  | no difference | 40–50% | significant plasma levels | EC50 (human IGF1R [2]; listed as M1): > 400 nM; IGF1R affinity in words (human IGF1R [3]): significantly reduced; insulin receptor binding relative to human insulin (insulin receptor; [5]): 78%
